We go through 22 compounds from US20180334436A1 (VIIV HEALTHCARE UK LIMITED, priority 2015, published 2018).

Molecules are shown by their SMILES.

This assay has as its system HIV. The experiment in a line: MT4 assay (anti-HIV activity). The settings on record: Human immunodeficiency virus 1, 96 h, antiviral HIV activity in HTLV-1 transformed cell line MT-4; luciferase read 96 hours later; 10 point dose response. The format is cell-based. As to the method: Antiviral HIV activity and cytotoxicity values for compounds of the invention from Table 1 were measured in parallel in the HTLV-1 transformed cell line MT-4 based on the method previously described (Hazen et al., 2007, In vitro antiviral activity of the novel, tyrosyl-based human immunodeficiency virus (HIV) type 1 protease inhibitor brecanavir (GW640385) in combination with other antiretrovirals and against a panel of protease inhibitor-resistant HIV (Hazen et al., “In vitro antiviral activity of the novel, tyrosyl-based human immunodeficiency virus (HIV) type 1 protease inhibitor brecanavir (GW640385) in combination with other antiretrovirals and against a panel of protease inhibitor-resistant HIV”, Antimicrob. Agents Chemother. 2007, 51: 3147-3154; and Pauwels et al., “Sensitive and rapid assay on MT-4 cells for the detection of antiviral compounds against the AIDS virus”, J. of Virological Methods 1987, 16: 171-185).
Luciferase activity was measured 96 hours later by adding a cell titer glo (Promega, Madison, Wis.). Percent inhibition of cell protection data was plotted relative to no compound control. Under the same condition, cytotoxicity of the compounds was determined using cell titer Glo™ (Promega, Madison, Wis.). IC50s were determined from a 10 point dose response curve using 3-4-fold serial dilution for each compound, which spans a concentration range >1000 fold.
These values are plotted against the molar compound concentrations using the standard four parameter logistic equation:
y=((Vmax*x̂n)/(K̂n+x̂n))+Y2
Y2=minimum y n=slope factor
Vmax=maximum y x=compound concentration [M]
Take `Cc1ccc(-c2c(C)c3c(c(C)c2[C@H](OC(C)(C)C)C(=O)O)CCN(C2CCC[C@@H](C)C2)C3)cc1` (single isomer, unassigned) [Example 71]: the IC50 came out at 0.014 µM.

Regarding `Cc1ccc(-c2c(C)c3c(c(C)c2C(OC(C)(C)C)C(=O)O)CN(Cc2cccc(F)c2)CC3)cc1` (stereo not shown) [Example 1, 2-(tert-Butoxy)-2-(2-(3-fluorobenzyl)-5,8-dimethyl-6-(p-tolyl)-1,2,3,4-tetrahydroisoquinolin-7-yl)acetic Acid], the IC50 stood at 3.25 µM.

Regarding `Cc1ccc(-c2c(C)c3c(c(C)c2C(OC(C)(C)C)C(=O)O)CN(C2CCCCC2)CC3)cc1` (stereo not shown) [Example 2, 2-(tert-Butoxy)-2-(2-cyclohexyl-5,8-dimethyl-6-(p-tolyl)-1,2,3,4-tetrahydroisoquinolin-7-yl)acetic Acid], the IC50 came to 1.72 µM.

With `Cc1ccc(-c2c(C)c3c(c(C)c2C(OC(C)(C)C)C(=O)O)CN(CC2CCCCC2)CC3)cc1` (stereo not shown) [Example 3, 2-(tert-Butoxy)-2-(2-(cyclohexylmethyl)-5,8-dimethyl-6-(p-tolyl)-1,2,3,4-tetrahydroisoquinolin-7-yl)acetic Acid], the IC50 is 3.2 µM.

Take `Cc1ccc(-c2c(C)c3c(c(C)c2C(OC(C)(C)C)C(=O)O)CN(C(=O)C2CCCCC2)CC3)cc1` (stereo not shown) [Example 4, 2-(tert-Butoxy)-2-(2-(cyclohexanecarbonyl)-5,8-dimethyl-6-(p-tolyl)-1,2,3,4-tetrahydroisoquinolin-7-yl)acetic Acid]: the IC50 was found to be 0.323 µM.

Take `Cc1ccc(-c2c(C)c3c(c(C)c2C(OC(C)(C)C)C(=O)O)CN(C(=O)C(=O)N2CCCCC2)CC3)cc1` (stereo not shown) [Example 5, 2-(tert-Butoxy)-2-(5,8-dimethyl-2-(2-oxo-2-(piperidin-1-yl)acetyl)-6-(p-tolyl)-1,2,3,4-tetrahydroisoquinolin-7-yl)acetic Acid]: the IC50 came to 0.157 µM.

For the compound `Cc1ccc(-c2c(C)c3c(c(C)c2C(OC(C)(C)C)C(=O)O)CN(C(=O)c2cccc(F)c2)CC3)cc1` (stereo not shown) [Example 6], the IC50 was 0.347 µM.

As for `Cc1ccc(-c2c(C)c3c(c(C)c2C(OC(C)(C)C)C(=O)O)CN(CC(=O)N2CCCCC2)CC3)cc1` (stereo not shown) [Example 7, 2-(tert-Butoxy)-2-(5,8-dimethyl-2-(2-oxo-2-(piperidin-1-yl)ethyl)-6-(p-tolyl)-1,2,3,4-tetrahydroisoquinolin-7-yl)acetic Acid], the IC50 was 0.418 µM.

`Cc1ccc(-c2c(C)c3c(c(C)c2C(OC(C)(C)C)C(=O)O)CN(c2ccccc2)CC3)cc1` (stereo not shown) [Example 8, 2-(tert-Butoxy)-2-(5,8-dimethyl-2-phenyl-6-(p-tolyl)-1,2,3,4-tetrahydroisoquinolin-7-yl)acetic Acid]: the IC50 stood at 6.48 µM.

Turning to `Cc1ccc(-c2c(C)c3c(c(C)c2C(OC(C)(C)C)C(=O)O)CN(C(=O)N2CCCCC2)CC3)cc1` (stereo not shown) [Example 9, 2-(tert-Butoxy)-2-(5,8-dimethyl-2-(piperidine-1-carbonyl)-6-(p-tolyl)-1,2,3,4-tetrahydroisoquinolin-7-yl)acetic Acid], the concentration for half-maximal inhibition (IC50) came out at 0.038 µM.

`Cc1ccc(-c2c(C)c3c(c(C)c2C(OC(C)(C)C)C(=O)O)CN(C(=O)NC2CCCCC2)CC3)cc1` (stereo not shown) [Example 10, 2-(tert-Butoxy)-2-(2-(cyclohexylcarbamoyl)-5,8-dimethyl-6-(p-tolyl)-1,2,3,4-tetrahydroisoquinolin-7-yl)acetic Acid]: the IC50 amounted to 1.48 µM.

As to `Cc1ccc(-c2c(C)c3c(c(C)c2C(OC(C)(C)C)C(=O)O)CN(S(=O)(=O)c2cccc(F)c2)CC3)cc1` (stereo not shown) [Example 11, 2-(tert-Butoxy)-2-(2-((3-fluorophenyl)sulfonyl)-5,8-dimethyl-6-(p-tolyl)-1,2,3,4-tetrahydroisoquinolin-7-yl)acetic Acid], the IC50 worked out at 0.817 µM.

In the case of `Cc1ccc(-c2c(C)c3c(c(C)c2[C@H](OC(C)(C)C)C(=O)O)CN(C(=O)N2CCCCC2)CC3)cc1` [Example 12, (S)-2-(tert-Butoxy)-2-(5,8-dimethyl-2-(piperidine-1-carbonyl)-6-(p-tolyl)-1,2,3,4-tetrahydroisoquinolin-7-yl)acetic Acid], the 50% inhibitory concentration (IC50) is 0.139 µM.

`Cc1ccc(-c2c(C)c3c(c(C)c2[C@H](OC(C)(C)C)C(=O)O)CN(C(=O)N2CCC(C)(C)CC2)CC3)cc1` [Example 13, (S)-2-(tert-Butoxy)-2-(2-(4,4-dimethylpiperidine-1-carbonyl)-5,8-dimethyl-6-(p-tolyl)-1,2,3,4-tetrahydroisoquinolin-7-yl)acetic Acid]: the concentration for half-maximal inhibition (IC50) came out at 0.129 µM.

As to `Cc1ccc(-c2c(C)c3c(c(C)c2[C@H](OC(C)(C)C)C(=O)O)CN(C(=O)N2CCCC2)CC3)cc1` [Example 14, (S)-2-(tert-Butoxy)-2-(5,8-dimethyl-2-(pyrrolidine-1-carbonyl)-6-(p-tolyl)-1,2,3,4-tetrahydroisoquinolin-7-yl)acetic Acid], the IC50 was 1.11 µM.

As for `Cc1ccc(-c2c(C)c3c(c(C)c2[C@H](OC(C)(C)C)C(=O)O)CN(S(=O)(=O)N2CCC(C)(C)CC2)CC3)cc1` [Example 15, (S)-2-(tert-Butoxy)-2-(2-((4,4-dimethylpiperidin-1-yl)sulfonyl)-5,8-dimethyl-6-(p-tolyl)-1,2,3,4-tetrahydroisoquinolin-7-yl)acetic Acid], the IC50 is 0.113 µM.

Turning to `Cc1ccc(-c2c(C)c3c(c(C)c2[C@H](OC(C)(C)C)C(=O)O)CN(S(=O)(=O)N2CCCCC2)CC3)cc1` [Example 16, (S)-2-(tert-Butoxy)-2-(5,8-dimethyl-2-(piperidin-1-ylsulfonyl)-6-(p-tolyl)-1,2,3,4-tetrahydroisoquinolin-7-yl)acetic Acid], the IC50 was 0.034 µM.

Turning to `Cc1ccc(-c2c(C)c3c(c(C)c2[C@H](OC(C)(C)C)C(=O)O)CN(C(=O)OC(C)(C)C)CC3)cc1` [Example 17, (S)-2-(tert-Butoxy)-2-(2-(tert-butoxycarbonyl)-5,8-dimethyl-6-(p-tolyl)-1,2,3,4-tetrahydroisoquinolin-7-yl)acetic Acid], the IC50 came to 0.444 µM.

For the compound `Cc1ccc(-c2c(C)c3c(c(C)c2[C@H](OC(C)(C)C)C(=O)O)CN(S(=O)(=O)CC2CCCCC2)CC3)cc1` [Example 18, (S)-2-(tert-Butoxy)-2-(2-((cyclohexylmethyl)sulfonyl)-5,8-dimethyl-6-(p-tolyl)-1,2,3,4-tetrahydroisoquinolin-7-yl)acetic Acid], the IC50 was determined as 1.18 µM.

`Cc1ccc(-c2c(C)c3c(c(C)c2[C@H](OC(C)(C)C)C(=O)O)CN(S(=O)(=O)C2CCCCC2)CC3)cc1` [Example 19, (S)-2-(tert-Butoxy)-2-(2-(cyclohexylsulfonyl)-5,8-dimethyl-6-(p-tolyl)-1,2,3,4-tetrahydroisoquinolin-7-yl)acetic Acid]: the IC50 stood at 1.45 µM.

In the case of `Cc1ccc(-c2c(C)c3c(c(C)c2[C@H](OC(C)(C)C)C(=O)O)CN(C(=O)CC(C)(C)C)CC3)cc1` [Example 20, (S)-2-(tert-Butoxy)-2-(2-(3,3-dimethylbutanoyl)-5,8-dimethyl-6-(p-tolyl)-1,2,3,4-tetrahydroisoquinolin-7-yl)acetic Acid], the IC50 came to 0.119 µM.

Turning to `Cc1ccc(-c2c(C)c3c(c(C)c2C(OC(C)(C)C)C(=O)O)CCN(C2CCCCC2)C3)cc1` (stereo not shown) [Example 21, 2-(tert-Butoxy)-2-(2-cyclohexyl-5,8-dimethyl-7-(p-tolyl)-1,2,3,4-tetrahydroisoquinolin-6-yl)acetic Acid], the IC50 turned out to be 0.027 µM.
